Tests used:
Micrococcus luteus = assay: β-D-ribosidase substrates in Columbia agar, colored or fluorescent colonies; format: cell-based; conditions: 400 mg/L + ammoniacal iron citrate 100 mg/l
Protocol: [The procedure below names another organism; the source lists this organism under the same test.] (§1) The media hereinafter were prepared in 200 ml of a Columbia agar base (Oxoid), in combination with the chromogenic β-D-ribosidase substrates. The various substrates and also the concentrations and the additives used in the media are described in Table 1 below:
(§2) The β-D-ribosidase substrates are solubilized in DMSO and added to the media so as to obtain the concentrations indicated in Table 1.
(§3) 191 bacterial strains were inoculated onto each of the media using a suspension at 0.5 MacFarland diluted to 1/1000. The dishes were incubated at 37° C. and then read.
(§4) The media were distributed into Petri dishes, then inoculated with approximately 100 000 CFU, then incubated at 37° C. for 48 h. The colonies formed were examined visually after incubation times of 18, 24 and 48 hours.
(§5) The stock collection of 191 strains comprised: […], 48 Staphylococcus spp, 61 Enterococcus spp and 3 alpha-hemolytic Streptococcus.

Coag neg = assay: Catechol-β-D-riboside and X-β-D-riboside on a broad panel of Staphylococcus spp; format: cell-based; conditions: GTS medium, 300 mg/l substrate, 500 mg/l ammoniacal iron citrate
Protocol: (§6) Catechol-β-D-riboside: A GTS medium (bioMérieux) supplemented with 300 mg/l of catechol-β-D-riboside, then autoclaved, and with 500 mg/l of ammoniacal iron citrate was used and distributed into Petri dishes 55 mm in diameter.
(§7) X-β-D-riboside: A modified Chapman medium, without NaCl, autoclaved and supplemented with 60 mg/l of X-β-D-riboside, was used and distributed into Petri dishes 55 mm in diameter.
For the two media, the inoculation was carried out using precultures prepared for 24 h at 37° C. A suspension in physiological saline at 0.5 McF was prepared and then each strain was inoculated onto a dish using a 10 μl calibrated loop.
(§8) The readings were carried out after 24 and 48 hours of incubation at 37° C.
(§9) In total, […] were tested: 34 S. aureus, including 25 MRSAs, and 46 other species of Staphylococcus (including S. schleiferi; S. capitis; S. hyicus; S. intermedius; S. haemolyticus; S. auricularis; S. hominis; S. warneri; S. chromogenes; S. cohnii; S. epidermidis; S. sciuri; S. xylosus; S. saprophyticus).

Enterococci = assay: β-D-ribosidase substrates in Columbia agar, colored or fluorescent colonies; format: cell-based, Enterococcus spp; conditions: 400 mg/L + ammoniacal iron citrate 100 mg/l
Protocol: as §1, §2, §3, §4, §5

[1] = system: Alpha-hemolytic streptococci; assay: as above; format: cell-based, alpha-hemolytic Streptococcus; conditions: 400 mg/L + ammoniacal iron citrate 100 mg/l
Protocol: as §1, §2, §3, §4, §5

S aureus (MRSA and MSSA) = assay: Catechol-β-D-riboside and X-β-D-riboside on a broad panel of Staphylococcus spp; format: cell-based; conditions: GTS medium, 300 mg/l substrate, 500 mg/l ammoniacal iron citrate
Protocol: as §6, §7
For the two media, the inoculation was carried out using precultures prepared for 24 h at 37° C. A suspension in physiological saline at 0.5 McF was prepared and then each strain was inoculated onto a dish using a 10 μl calibrated loop. […]
as §9

[2] = system: S. aureus (MRSA and MSSA); assay: Catechol-β-D-riboside in a liquid medium, coloration; format: cell-based, Staphylococcus aureus
Protocol: (§10) The medium hereinafter had the same composition as a chromID S. aureus base (bioMérieux), with no selective agents nor agar, so as to obtain a liquid medium. The substrates and inducers were replaced, before autoclaving, with […] of catechol-β-D-riboside, solubilized in DMSO, and with ammoniacal iron citrate at 500 mg/l. The medium was then distributed into tubes in a proportion of 1.5 ml/tube.
For this medium, the inoculation was carried out using precultures prepared for 24 h at 37° C. A suspension of physiological saline at 0.5 McF was prepared and then each tube was inoculated with 10 μl of bacterial suspension. […]
(§11) In total, 11 staphylococcus strains were tested; 5 S. aureus and 6 of other species of the Staphylococcus genus (coagulase-negative).

[3] = system: Coagulase-negative Staphylococci; assay: β-D-ribosidase substrates in Columbia agar, colored or fluorescent colonies; format: cell-based, Staphylococcus spp; conditions: Coagulase-negative Staphylococci, 400 mg/L + ammoniacal iron citrate 100 mg/l
Protocol: as §1, §2, §3, §4, §5

Coagulase-negative = assay: Catechol-β-D-riboside in a liquid medium, coloration; format: cell-based
Protocol: as §10
For this medium, the inoculation was carried out using precultures prepared for 24 h at 37° C. A suspension of physiological saline at 0.5 McF was prepared and then each tube was inoculated with 10 μl of bacterial suspension.
as §8, §11

S. aureus (MSSA) = assay: β-D-ribosidase substrates in Columbia agar, colored or fluorescent colonies; format: cell-based, Staphylococcus aureus; conditions: 400 mg/L + ammoniacal iron citrate 100 mg/l
Protocol: as §1, §2, §3, §4, §5

S. aureus (MRSA) = assay: as above; format: cell-based, Staphylococcus aureus; conditions: 400 mg/L + ammoniacal iron citrate 100 mg/l
Protocol: as §1, §2, §3, §4, §5

SMILES: OC[C@H]1O[C@@H](Oc2ccccc2O)[C@H](O)[C@@H]1O [Catechol-β-riboside, 2-Hydroxyphenyl-beta-D-riboside]
- % of strains producing colored or fluorescent colonies (Micrococcus luteus; 18 h): 0%
- % of strains producing colored or fluorescent colonies (Micrococcus luteus; 24 h): 0%
- % of strains producing colored or fluorescent colonies (Micrococcus luteus; 48 h): 0%
- Number of strains producing a coloration/total number of strains, positive at 18 h (Coag neg; 18 h): 10/46
- Number of strains producing a coloration/total number of strains, positive at 24 h (Coag neg; 24 h): 14/46
- Number of strains producing a coloration/total number of strains, positive at 48 h (Coag neg; 48 h): 14/46
- % of strains producing colored or fluorescent colonies (Enterococci; 18 h): 2%
- % of strains producing colored or fluorescent colonies (Enterococci; 24 h): 2%
- % of strains producing colored or fluorescent colonies (Enterococci; 48 h): 2%
- % of strains producing colored or fluorescent colonies ([1]; 18 h): 0%
- % of strains producing colored or fluorescent colonies ([1]; 24 h): 0%
- % of strains producing colored or fluorescent colonies ([1]; 48 h): 0%
- Number of strains producing a coloration/total number of strains, positive at 18 h (S aureus (MRSA and MSSA); 18 h): 19/34
- Number of strains producing a coloration/total number of strains, positive at 24 h (S aureus (MRSA and MSSA); 24 h): 31/34
- Number of strains producing a coloration/total number of strains, positive at 48 h (S aureus (MRSA and MSSA); 48 h): 34/34
- Number of strains producing a coloration, Positive at 18 h ([2]; 300 ml/g catechol-β-D-riboside, ammoniacal iron citrate 500 mg/l, S. aureus, 18 h): 5/5
- Number of strains producing a coloration, Positive at 24 h ([2]; 300 ml/g catechol-β-D-riboside, ammoniacal iron citrate 500 mg/l, S. aureus, 24 h): 5/5
- Number of strains producing a coloration, Positive at 48 h ([2]; 300 ml/g catechol-β-D-riboside, ammoniacal iron citrate 500 mg/l, S. aureus, 48 h): 5/5
- coloration for S. aureus ([2]; from 18 hours onward): 100%
- % of strains producing colored or fluorescent colonies ([3]; 18 h): 3%
- % of strains producing colored or fluorescent colonies ([3]; 24 h): 3%
- % of strains producing colored or fluorescent colonies ([3]; 48 h): 3%
- Number of strains producing a coloration, Positive at 18 h (Coagulase-negative; 300 ml/g catechol-β-D-riboside, ammoniacal iron citrate 500 mg/l, coagulase-negative, 18 h): 0/6
- Number of strains producing a coloration, Positive at 24 h (Coagulase-negative; 300 ml/g catechol-β-D-riboside, ammoniacal iron citrate 500 mg/l, coagulase-negative, 24 h): 0/6
- Number of strains producing a coloration, Positive at 48 h (Coagulase-negative; 300 ml/g catechol-β-D-riboside, ammoniacal iron citrate 500 mg/l, coagulase-negative, 48 h): 1/6
- detection of the other species of the Staphylococcus genus (Coagulase-negative; from 18 hours onward): none of the other species of the Staphylococcus genus were detected
- % of strains producing colored or fluorescent colonies (S. aureus (MSSA); 18 h): 100%
- % of strains producing colored or fluorescent colonies (S. aureus (MSSA); 24 h): 100%
- % of strains producing colored or fluorescent colonies (S. aureus (MSSA); 48 h): 100%
- % of strains producing colored or fluorescent colonies (S. aureus (MRSA); 18 h): 100%
- % of strains producing colored or fluorescent colonies (S. aureus (MRSA); 24 h): 100%
- % of strains producing colored or fluorescent colonies (S. aureus (MRSA); 48 h): 100%

Source: patent US20100297692A1, “REACTION MEDIUM FOR DETECTING AND/OR IDENTTIFYING STAPHYLOCCOUS AUREUS” (BIOMERIEUX, priority 2007, published 2010)
